Like-named read-outs stand apart in the source and are kept apart here.
How the values were obtained:
[1] = Evaluation of stability in human plasma, HPLC or LC-TOF; assay type: in vitro ADME
Procedure: The stabilities of diverse cyclic carbonate prodrugs (4, 9, 10, 11, 17, 18, 19, 25, 29, 30, 39, 40, and 41), which have a chromosphere for UV detection, in human plasma were tested using HPLC. After the mixture of test compounds and human plasma were incubated at 37° C., the degradation of the compounds was monitored by HPLC (Table 2). […] The peaks of the corresponding diols (3, 24, or 34), which were the compounds that result when only the carbonate moiety of the analogues was hydrolyzed, were not observed. The half-lives of the benzyl or phenyl ester moieties may be shorter than carbonate, under tested conditions for such compounds to be used effectively as prodrugs.
Human plasma (100%, 480 μL) was incubated at 37° C. for 5 min. The stock solution of the test compound (100 mM in acetonitrile, 20 μL) was added to the human plasma, and the mixture was incubated at 37° C. Aliquots (80 μL) of the plasma samples were removed and mixed with an equal volume of acetonitrile. The mixture was stirred vigorously and centrifuged (5500 rpm, 5 min). The supernatant was filtered and the filtrate was analyzed by HPLC or LC-TOF (See below). These tests were conducted two times in each compound.
(§1) Analysis was performed on a Phenomenex® Luna C18 column (250×4.6 mm) eluted with a gradient conditions of acetonitrile and H2O. Detection was by UV absorbance at 257 nm or total count of single ion in Agilent 6210 LC-TOF mass spectra.

[2] = Evaluation of stability in PBS buffer (pH=7.4), HPLC; assay type: physicochemical; settings: for half-life at 1 mM: PBS buffer pH=7.4, 37° C., read-out: half-life time (T1/2) in PBS buffer (converted)
Procedure: The stabilities of several cyclic carbonate analogues in PBS buffer (pH=7.4) were tested first to determine the standard level of the drug decomposition by media (Table 1). PBS (phosphate buffered saline) buffer is a standard solution used in plasma stability tests. […] After the compounds were incubated in PBS buffer at 37° C., the degradation of the compounds with incubation time was monitored. As the number of fluorines at the C6 position was increased, the half-life time (T1/2) of the molecule was decreased dramatically (4 vs 25 vs 35). T1/2 of the C6-methyl analogue (4) was more than 48 hours and T1/2 of C6-monofluoromethyl analogues (25, 29, and 30) were about 25 hours while T1/2 of C6-trifluoromethyl analogues (35, 39, and 40) were about 5 hours. If the substitution of C-6 position (CH3, CH2F, or CF3) was same, T1/2 of diverse benzyl esters (benzyl, 4-fluorobenzyl, or 2,4-difluorobenzyl) were not dramatically changed. […] These half-lives of benzyl esters and cyclic carbonates in PBS buffer were sufficient to use these promoieties for the penetration of the cell membrane.
The stock solution of the test compound (10 mM in acetonitrile, 50 μL) was added to PBS buffer (pH=7.4, 450 μL), and the mixture was incubated at 37° C. Aliquots of the samples were analyzed directly by HPLC (See below). These tests were conducted two times in each compound.
as §1

[3] = human, human plasma (100%), 37° C., read-out: half-life (T1/2) in human plasma
[4] = human, human plasma (100%), 37° C., read-out: T1/2 (half-lives of diverse carbonate in human plasma)
[5] = human, human plasma (100%), 37° C., read-out: T1/2 (stabilities of the benzyl amide analogues with acetal, ketal, t-butyl carbonate promoieties in human plasma)
[6] = read-out: half-life of the ester moieties on the carboxylic acids

For `CC1(CC(=O)NCc2ccccc2)CCOCO1` (stereo not drawn) [compound 45], the “T1/2 (stabilities of the benzyl amide analogues with acetal, ketal, t-butyl carbonate promoieties in human plasma)” value ([1]; 37° C.) was over 48 h.

Work on `COC(=O)CC1(CF)CCOC(=O)O1` (stereo not drawn) yielded a melting point of 42 to 42.5 °C.

In the case of `O=C(CC1(CF)CCOC(=O)O1)OCc1ccccc1` (stereo not drawn) [compound 25], the half-life at 1 mM [2] is reported as about 25 h, the “T1/2 (half-lives of diverse carbonate in human plasma)” value ([1]; 37° C.) is reported as 2 min and the half-life at 4 mM [1, 3] is reported as under 3 min.

In the case of `CC(=O)OCCC(O)(CF)CC(=O)NCc1ccccc1` (stereo not drawn) [compound 65], the half-life at 4 mM ([1]; human, human plasma (100%), 37° C., read-out: T1/2 (stabilities of amide and ester analogues in human plasma)) is reported as 20 min and the half-life at 4 mM ([1]; human, human plasma (100%), read-out: half-life of the acetyl groups on the alcohol) is reported as about 20 min.

With `COc1ccc(C2OCCC(CC(=O)NCc3ccccc3)(C(F)(F)F)O2)cc1` (stereo not drawn) [compound 51] the “T1/2 (stabilities of the benzyl amide analogues with acetal, ketal, t-butyl carbonate promoieties in human plasma)” value ([1]; 37° C.) was over 48 h.

For `O=C(CC1(C(F)(F)F)CCOC(=O)O1)OCCc1ccccc1` (stereo not drawn) [compound 41], the half-life at 4 mM [1, 4] was 4 min and the half-life at 4 mM [1, 3] was under 3 min.

For `O=C(CC1(C(F)(F)F)CCOC(=O)O1)OCc1ccccc1` (stereo not drawn) [compound 35], the half-life at 1 mM [2] was about 5 h, the “peak of 34 (carbonate moiety decomposition product) in HPLC” value ([2]; degradation of 35 in PBS buffer) was “not observed” and the melting point was 87.5 to 88 °C. For the same molecule, the “T1/2 (half-lives of diverse carbonate in human plasma)” value ([1]; 37° C.) was under 1 min and the half-life at 4 mM [1, 3] was under 3 min.

With `O=C(CC1(C(F)(F)F)CCOCO1)NCc1ccccc1` (stereo not drawn) [compound 46] the “T1/2 (stabilities of the benzyl amide analogues with acetal, ketal, t-butyl carbonate promoieties in human plasma)” value ([1]; 37° C.) was over 48 h.

`CC1(CC(=O)OCc2ccccc2)CCOC(=O)O1` (stereo not drawn) [compound 4] gave a half-life at 1 mM [2] of over 48 h and a half-life at 4 mM [1, 3] of 4 min.

In the case of `CC1(CC(=O)Oc2ccc(F)cc2)CCOC(=O)O1` (stereo not drawn) [compound 10], the melting point is reported as 68 to 69 °C and the half-life at 4 mM [1, 3] is reported as under 3 min.

In the case of `COc1ccc(C2OCCC(CC(=O)NCc3ccccc3)(C(F)(F)F)O2)cc1` (stereo not drawn) [compound 52], the half-life at 4 mM [1, 5] is reported as over 2880 min.

With `COC(=O)CC(O)(CF)CCOC(C)=O` (stereo not drawn) [compound 63] the “T1/2 (stabilities of amide and ester analogues in human plasma)” value ([1]; 37° C.) was 10 min and the half-life at 4 mM [1, 6] was 10 to 22 min.

Work on `CC1(CC(=O)Oc2ccc3c(c2)CCC3)CCOC(=O)O1` (stereo not drawn) [compound 11] yielded a melting point of 88 to 89 °C, a half-life at 4 mM [1, 4] of under 3 min and a half-life at 4 mM [1, 3] of under 3 min.

Work on `CC1(C)OCCC(CC(=O)NCc2ccccc2)(C(F)(F)F)O1` (stereo not drawn) [compound 48] yielded a half-life at 4 mM [1, 5] of over 2880 min.

For `O=C(CC1(C(F)(F)F)CCOC(=O)O1)OCc1ccc(F)cc1F` (stereo not drawn) [compound 40], the half-life at 1 mM [2] was about 5 h, the “T1/2 (half-lives of diverse carbonate in human plasma)” value ([1]; 37° C.) was under 1 min and the half-life at 4 mM [1, 3] was under 3 min.

For `CC1(CC(=O)NCc2ccccc2)CCOC(c2ccccc2)O1` (stereo not drawn) [compound 49], the “T1/2 (stabilities of the benzyl amide analogues with acetal, ketal, t-butyl carbonate promoieties in human plasma)” value ([1]; 37° C.) was over 48 h.

In the case of `CC1(CC(=O)NCc2ccc(F)cc2)CCOC(=O)O1` (stereo not drawn) [compound 19], the half-life at 4 mM [1, 3] is reported as 8 min.

For `CC(O)(CCO)CC(=O)NCc1c(F)c(F)c(F)c(F)c1F` (stereo not drawn) [compound 56], the “T1/2 (stabilities of amide and ester analogues in human plasma)” value ([1]; 37° C.) was over 120 min.

For `CCOC(=O)CC(O)(CF)CCOC(C)=O` (stereo not drawn) [compound 64], the “T1/2 (stabilities of amide and ester analogues in human plasma)” value ([1]; 37° C.) was 11 min and the half-life at 4 mM [1, 6] was 10 to 22 min.

`CC1(CC(=O)Nc2ccccc2)CCOC(=O)O1` (stereo not drawn) [compound 17] gave a half-life at 4 mM [1, 3] of under 3 min.

In the case of `COc1ccc(C2OCCC(CC(=O)NCc3ccccc3)(C(F)(F)F)O2)c(OC)c1` (stereo not drawn) [compound 53], the “T1/2 (stabilities of the benzyl amide analogues with acetal, ketal, t-butyl carbonate promoieties in human plasma)” value ([1]; 37° C.) is reported as over 48 h.

With `CC1(CC(=O)Oc2ccccc2)CCOC(=O)O1` (stereo not drawn) [compound 9] the melting point was 62 to 62.5 °C and the half-life at 4 mM [1, 3] was under 3 min.

For `CC1(CC(=O)NCc2ccccc2)CCOC(C)(C)O1` (stereo not drawn) [compound 47], the “T1/2 (stabilities of the benzyl amide analogues with acetal, ketal, t-butyl carbonate promoieties in human plasma)” value ([1]; 37° C.) was over 48 h.

For `O=C(CC1(CF)CCOC(=O)O1)OCc1ccc(F)cc1` (stereo not drawn) [compound 29], the half-life at 1 mM [2] was about 25 h, the “T1/2 (half-lives of diverse carbonate in human plasma)” value ([1]; 37° C.) was 2 min and the half-life at 4 mM [1, 3] was under 3 min.

With `O=C(CC1(C(F)(F)F)CCOC(c2ccccc2)O1)NCc1ccccc1` (stereo not drawn) [compound 50] the “T1/2 (stabilities of the benzyl amide analogues with acetal, ketal, t-butyl carbonate promoieties in human plasma)” value ([1]; 37° C.) was over 48 h.

For `CC(C)(C)OC(=O)OCCC(O)(CC(=O)NCc1ccccc1)C(F)(F)F` (stereo not drawn) [compound 55], the “T1/2 (stabilities of the benzyl amide analogues with acetal, ketal, t-butyl carbonate promoieties in human plasma)” value ([1]; 37° C.) was over 48 h.

In the case of `O=C(CC1(C(F)(F)F)CCOC(=O)O1)OCc1ccc(F)cc1` (stereo not drawn) [compound 39], the half-life at 1 mM [2] is reported as about 5 h, the melting point is reported as 84 to 85 °C and the “T1/2 (half-lives of diverse carbonate in human plasma)” value ([1]; 37° C.) is reported as under 1 min. It also gave a half-life at 4 mM [1, 3] of under 3 min.

In the case of `CC1(CC(=O)NCc2ccccc2)CCOC(=O)O1` (stereo not drawn) [compound 18], the half-life at 4 mM [1, 3] is reported as 8 min.

In the case of `CC(O)(CCOC(=O)OC(C)(C)C)CC(=O)NCc1ccccc1` (stereo not drawn) [compound 54], the “T1/2 (stabilities of the benzyl amide analogues with acetal, ketal, t-butyl carbonate promoieties in human plasma)” value ([1]; 37° C.) is reported as over 48 h.

In the case of `O=C(CC1(CF)CCOC(=O)O1)OCc1ccc(F)cc1F` (stereo not drawn) [compound 30], the half-life at 1 mM [2] is reported as about 25 h, the “T1/2 (half-lives of diverse carbonate in human plasma)” value ([1]; 37° C.) is reported as 1 min and the half-life at 4 mM [1, 3] is reported as under 3 min.

From patent US9150534B2, “Prodrugs of fluorinated mevalonates to inhibit the mevalonate pathway of Streptococcus pneumoniae” (Northwestern University, priority 2012, dated 2015)
